System: polymerase having terminal transferase activity
Description: PCR products with and without boric acid added to PCR components and reagents prior to thermal cycling steps were compared. Stock boric acid was dissolved in 50% primer dilution buffer and added to PCR reactions for a final concentration of 100 mM boric acid and 200 mM boric acid.

- 3′ non-template addition of amplicons resulting from polymerase dependent terminal transferase activity (addition of boric acid to amplification reactions, summary statement, no concentration given): reduced 3′ non-template addition
SMILES: OB(O)O [boric acid]
- non-template addition on forward and reverse strands of PCR products (boric acid added before thermal cycling, final concentration 100 mM and 200 mM, mass spectrometry (FIG. 1), non-template addition identified in absence of boric acid): undetectable non-template addition on both the forward and reverse strands

Reference: patent publication US9068017B2, “Compositions and methods for inhibiting terminal transferase activity” (IBIS BIOSCIENCES, INC., priority 2010, dated 2015)
